Results taken from patent US10238630B2, “Use of eribulin and poly (ADP ribose) polymerase (PARP) inhibitors as combination therapy for the treatment of cancer” (Eisai R&D Management Co., Ltd., priority 2014, dated 2019).
“Also recorded” adds a separate entry of the source. Counter-ions that a name gives are not always drawn.

System: MDA-MB-231 human breast cancer xenografts
Assay: Antitumor activity against subcutaneous MDA-MB-231 human breast cancer xenografts in athymic mice (two studies)
Type: in vivo
Experimental: MDA-MB-231 human triple negative breast cancer cells are wild type for BRCA1 and 2 and PTEN. Cells were maintained in monolayer cultures in RPMI-1640 growth medium supplemented with 10% fetal bovine serum at 37° C. in a 5% CO2 humidified incubator. On the day of inoculation, cells were harvested by trypsinization, washed, and resuspended in ice-cold PBS. Female immunodeficient athymic mice were inoculated subcutaneously near the right axillary area with MDA-MB-231 cells (5×10^6) in a 1:1 ratio (50 μL each) with Matrigel™ in a volume of 0.1 mL in phosphate buffered saline, using a 26-gauge needle. A total of 94 mice, approximately 6 weeks old were implanted with MDA-MB-231 cells.
E7449, carboplatin and E7389 were evaluated as single agents and in combination for antitumor activity against MDA-MB-231 human breast cancer xenografts in athymic mice. The first experiment consisted of a vehicle control group, an E7449 single agent group, 2 groups treated with single agent E7389 and 2 combination drug-treated groups (Table 5). Thirty-nine mice were inoculated with MDA-MB-231 cells and on Day 21 following implantation, tumor volumes were measured and mice were randomized into the 6 treatment groups based on tumor volume (average of 300 mm^3). Following randomization drug treatment was initiated. Each group was composed of 5 mice for a total of 30 mice on the first day of treatment. E7449 was formulated in 0.5% methyl cellulose and orally administered once daily for 28 days at 100 mg/kg based on body weight at 0.1 mL per 10 g. E7389 was formulated in saline and was intravenously administered once every 4 days, 4 times (Day 21, 25, 29, and 33) at a dosage of 0.05 or 0.1 mg/kg as single agent or in combination with E7449, based on body weight at 0.1 mL per 10 g. The control group was treated with oral vehicle (0.5% methyl cellulose in water) daily and intravenous vehicle (saline) once every 4 days, 4 times. E7449 or vehicle was administered first and when dosing of all animals was complete E7389 was administered to animals receiving the combination.
The second experiment consisted of a vehicle control group, 2 groups treated with single agent E7449, 2 groups treated with single agent carboplatin and 3 combination drug-treated groups (Table 6). Fifty five mice were inoculated with MDA-MB-231 cells and on Day 18 following implantation, tumor volumes were measured and mice were randomized into 8 treatment groups based on tumor volume (average of 300 mm^3). Following randomization drug treatment was initiated. Each group consisted of 5 mice for a total of 40 mice on the first day of treatment. E7449, formulated in 0.5% methyl cellulose was orally administered daily for 28 days, at 60 or 100 mg/kg based on body weight at 0.1 mL per 10 g. Carboplatin was formulated in saline and was intravenously administered once on the first day of treatment (Day 18) at a dosage of 15 or 60 mg/kg as a single agent or in combination with E7449 based on body weight at 0.1 mL per 10 g. The control group was treated with oral vehicle (0.5% methyl cellulose in water) daily and intravenous vehicle (saline) once on Day 18. E7449 or vehicle was administered first and when dosing of all animals was complete carboplatin was administered to animals receiving the combination.
Drug treatment was initiated 21 or 18 days post tumor implantation, in the E7389 and carboplatin combination studies respectively, and continued for 28 days. […]

SMILES | inhibition of tumor growth versus vehicle (E7389 0.1 mg/kg IV Q4Dx4, single agent, P<0.05 on Day 42, 0.1 mg/kg) | antitumor effect (tumor volume), dose dependence (E7389 0.05 and 0.1 mg/kg IV Q4Dx4, single agent) | antitumor effect (tumor volume) (E7389 combination study, E7449 100 mg/kg PO QDx28, single agent, 100 mg/kg) | antitumor effect (tumor volume) (carboplatin combination study, E7449 60 or 100 mg/kg PO QDx28, single agent)
C=C1C[C@@H]2CC[C@@]34C[C@H]5OC6[C@@H](O[C@H]7CC[C@H](CC(=O)C[C@@H]8[C@@H](OC)[C@@H](C[C@H](O)CN)O[C@H]8C[C@H]8O[C@@H](CC[C@@H]1O2)C[C@@H](C)C8=C)O[C@@H]7[C@@H]6O3)[C@H]5O4 [E7389, 11, 15:18,21:24,28-triepoxy-7,9-ethano-12,15-methano-9H,15H-furo[3,2-i]furo[2′,3′:5,6]pyrano[4,3-b] [1,4]dioxacyclopentacosin-5(4H)-one, 2-[(2S)-3-amino-2-hydroxypropyl]hexacosahydro-3-methoxy-26-methyl-20,27-bis(methylene)-, (2R,3R,3aS,7R,8aS,9S,10aR,11S,12R,13aR,13bS,15S,18S,21S,24S,26R,28R,29aS)-methanesulfonate (salt)] | statistically significant effect; also recorded: Statistically significant inhibition of tumor growth | Dose dependent antitumor activity | – | –
O=c1[nH]nc2c3c(cccc13)N=C(CN1Cc3ccccc3C1)N2 [E7449] | – | – | did not significantly inhibit tumor growth; also recorded: No antitumor activity | did not significantly inhibit tumor growth; also recorded: No antitumor activity
